Consider 28 molecules from patent US10098902B2, “Arginase inhibitors as therapeutics” (Mars, Incorporated, priority 2010, dated 2018).

Test [1] deals with human arginase II (ARG II) (Homo sapiens (Human), UniProt P78540). Briefly: Inhibition of arginase II, spectrophotometric urea assay at 530 nm. The format is biochemical. Particulars: potency rank 1-5; pH 7.4, 37° C., 60 minutes. How it is done: (§1) Inhibition of arginase I (ARG I) and arginase II (ARG II) by Formula I or Formula II compounds is followed spectrophotometrically at 530 nm. The compound to be tested was dissolved in DMSO at an initial concentration 50-fold greater than its final concentration in the cuvette. 10 μl of the stock solution was diluted in 90 μl of the assay buffer that comprises 0.1M sodium phosphate buffer containing 130 mM NaCl, pH 7.4, to which is added ovalbumin (OVA) at a concentration of 1 mg/ml. Solutions of arginase I and II were prepared in 100 mM sodium phosphate buffer, pH 7.4 containing 1 mg/ml of OVA to give an arginase stock solution at a final concentration of 100 ng/ml.
human arginase II (ARG II), sequence (P78540 23-354): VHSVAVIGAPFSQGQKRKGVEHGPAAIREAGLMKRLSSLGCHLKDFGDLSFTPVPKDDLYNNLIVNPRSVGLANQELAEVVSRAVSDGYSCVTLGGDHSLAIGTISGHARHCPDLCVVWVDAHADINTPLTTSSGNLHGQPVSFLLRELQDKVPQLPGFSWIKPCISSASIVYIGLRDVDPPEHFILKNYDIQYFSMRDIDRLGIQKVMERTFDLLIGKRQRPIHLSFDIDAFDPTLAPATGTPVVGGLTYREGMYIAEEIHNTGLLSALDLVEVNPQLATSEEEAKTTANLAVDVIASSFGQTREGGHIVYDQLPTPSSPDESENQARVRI
(§2) To each well of a 96-well microtiter plate was added 40 μl of enzyme, 10 μl of an inventive compound and 10 μl of enzyme substrate (L-arginine+manganese sulfate). For wells that were used as positive controls, only the enzyme and its substrate were added, while wells used as negative controls contained only manganese sulfate.
(§3) After incubating the microtiter plate at 37° C. for 60 minutes, 150 μl of a urea reagent obtained by combining equal proportions (1:1) of reagents A and B is added to each well of the microtiter plate to stop the reaction. The urea reagent is made just before use by combining Reagent A (10 mM o-phthaldialdehyde, and 0.4% polyoxyethylene (23) lauryl ether (w/v) in 1.8 M sulfuric acid) with Reagent B (1.3 mM primaquine diphosphate, 0.4% polyoxyethylene (23) lauryl ether (w/v), 130 mM boric acid in 3.6 mM sulfuric acid). After quenching the reaction mixture, the microtiter plate is allowed to stand for an additional 10 minutes at room temperature to allow the color to develop. The inhibition of arginase was computed by measuring the optical density (OD) of the reaction mixture at 530 nm and normalizing the OD value to percent inhibition observed in the control. The normalized OD is then used to generate a dose-response curve by plotting the normalized OD values against log [concentration] and using regression analysis to compute the IC50 values.

A further test addresses human arginase I (ARG I) (Homo sapiens (Human), UniProt P05089). The test can be described thus: Inhibition of arginase I, spectrophotometric urea assay at 530 nm. The format is biochemical. The following applies: potency rank 1-5; pH 7.4, 37° C., 60 minutes. As for the experimental part: as §1, §2, §3

A word on the IC50: it is the concentration at which inhibition is half-maximal. Read a low IC50 as greater potency in that assay.

human arginase I (ARG I), sequence (P05089 whole entry): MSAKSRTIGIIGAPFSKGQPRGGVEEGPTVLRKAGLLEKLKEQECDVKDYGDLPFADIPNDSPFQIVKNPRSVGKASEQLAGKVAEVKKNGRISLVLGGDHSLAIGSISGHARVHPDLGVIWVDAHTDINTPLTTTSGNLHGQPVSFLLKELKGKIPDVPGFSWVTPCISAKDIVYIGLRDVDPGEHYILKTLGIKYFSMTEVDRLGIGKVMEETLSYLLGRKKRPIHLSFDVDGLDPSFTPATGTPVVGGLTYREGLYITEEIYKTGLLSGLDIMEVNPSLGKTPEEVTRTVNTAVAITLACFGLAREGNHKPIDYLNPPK

Turning to `N[C@@]1(C(=O)O)CN(CCCc2ccc(Cl)cc2)C[C@@H]1CCCB(O)O` [Example 22, (3R,4S)-3-amino-4-(3-boronopropyl)-1-(3-(4-chlorophenyl)propyl)pyrrolidine-3-carboxylic acid], the IC50 (in test [1]; against human arginase I (ARG I)) was 251 to 1000 nM throughout.

As for `N[C@@]1(C(=O)O)CN(c2ncnc3nc[nH]c23)C[C@@H]1CCCB(O)O` [Example 23, (3R,4S)-3-amino-4-(3-boronopropyl)-1-(7H-purin-6-yl)pyrrolidine-3-carboxylic acid], the IC50 in test [1] lay in the range of 1000 to 2000 nM; against human arginase I (ARG I), 251 to 1000 nM.

`NCCN1C[C@H](CCCB(O)O)[C@](N)(C(=O)O)C1` [Example 24, (3R,4S)-3-amino-1-(2-aminoethyl)-4-(3-boronopropyl)pyrrolidine-3-carboxylic acid]: the IC50 (in test [1]; against human arginase I (ARG I)) was 0.1 to 250 nM in each case.

On to `N[C@@]1(C(=O)O)CN(c2cncc(C(=O)O)c2)C[C@@H]1CCCB(O)O` [Example 25, 5-((3R,4S)-3-amino-4-(3-boronopropyl)-3-carboxypyrrolidin-1-yl)nicotinic acid], for which the IC50 (in test [1]; on human arginase I (ARG I)) was 251 to 1000 nM each time.

As for `N[C@@]1(C(=O)O)CN(C2CCNCC2)C[C@@H]1CCCB(O)O` [Example 26, (3R,4S)-3-amino-4-(3-boronopropyl)-1-(piperidin-4-yl)pyrrolidine-3-carboxylic acid], the IC50 (in test [1]; on human arginase I (ARG I)) was 251 to 1000 nM in each case.

As to `N[C@@]1(C(=O)O)CN(C2CCNC2)C[C@@H]1CCCB(O)O` (stereo partly drawn) [Example 27, (3R,4S)-3-amino-4-(3-boronopropyl)-1,3′-bipyrrolidine-3-carboxylic acid], the IC50 (in test [1]; against human arginase I (ARG I)) was 0.1 to 250 nM each time.

For `N[C@@]1(C(=O)O)CN(C2CCCNC2)C[C@@H]1CCCB(O)O` (stereo partly drawn) [Example 28, (3R,4S)-3-amino-4-(3-boronopropyl)-1-(piperidin-3-yl)pyrrolidine-3-carboxylic acid], the IC50 is 251 to 1000 nM in test [1] and 0.1 to 250 nM against human arginase I (ARG I).

As to `N[C@@]1(C(=O)O)CN(Cc2ccccn2)C[C@@H]1CCCB(O)O` [Example 29, (3R,4S)-3-amino-4-(3-boronopropyl)-1-(pyridin-2-ylmethyl)pyrrolidine-3-carboxylic acid], the 50% inhibitory concentration (IC50) (in test [1]; against human arginase I (ARG I)) was 1000 to 2000 nM each time.

Regarding `N[C@@]1(C(=O)O)CN(C2CCC(C(=O)O)CC2)C[C@@H]1CCCB(O)O` (stereo partly drawn) [Example 30, (3R,4S)-3-amino-4-(3-boronopropyl)-1-(4-carboxycyclohexyl)pyrrolidine-3-carboxylic acid], the IC50 in test [1] lay within 1000 to 2000 nM; at human arginase I (ARG I), 251 to 1000 nM.

With `Cn1ccnc1CN1C[C@H](CCCB(O)O)[C@](N)(C(=O)O)C1` [Example 31, (3R,4S)-3-amino-4-(3-boronopropyl)-1-((1-methyl-1H-imidazol-2-yl)methyl)pyrrolidine-3-carboxylic acid], the IC50 in test [1] lay in the range of 251 to 1000 nM; against human arginase I (ARG I), 0.1 to 250 nM.

With `Cc1ccncc1N1C[C@H](CCCB(O)O)[C@](N)(C(=O)O)C1` [Example 32, (3R,4S)-3-amino-4-(3-boronopropyl)-1-(4-methylpyridin-3-yl)pyrrolidine-3-carboxylic acid], the IC50 (in test [1]; against human arginase I (ARG I)) was 1000 to 2000 nM in each case.

With `N[C@@]1(C(=O)O)CN(CCN2CCCCC2)C[C@@H]1CCCB(O)O` [Example 33, (3R,4S)-3-amino-4-(3-boronopropyl)-1-(2-(piperidin-1-yl)ethyl)pyrrolidine-3-carboxylic acid], the IC50 fell in the range of 251 to 1000 nM in test [1] and 0.1 to 250 nM against human arginase I (ARG I).

As to `CCN(CC)CCN1C[C@H](CCCB(O)O)[C@](N)(C(=O)O)C1` [Example 34, (3R,4S)-3-amino-4-(3-boronopropyl)-1-(2-(diethylamino)ethyl)pyrrolidine-3-carboxylic acid], the half-maximal inhibitory concentration (IC50) was 251 to 1000 nM in test [1] and 0.1 to 250 nM against human arginase I (ARG I).

Turning to `CN[C@@]1(C(=O)O)CNC[C@@H]1CCCB(O)O` [Example 35, (3R,4S)-4-(3-boronopropyl)-3-(methylamino)pyrrolidine-3-carboxylic acid], the IC50 (in test [1]; on human arginase I (ARG I)) was 251 to 1000 nM in each case.

Regarding `CN1CCCCC1CN1C[C@H](CCCB(O)O)[C@](N)(C(=O)O)C1` (stereo partly drawn) [Example 36, (3R,4S)-3-amino-4-(3-boronopropyl)-1-((1-methylpiperidin-2-yl)methyl)pyrrolidine-3-carboxylic acid], the IC50 in test [1] was 251 to 1000 nM; against human arginase I (ARG I), 0.1 to 250 nM.

For `N[C@@]1(C(=O)O)CN(CC2CCCN2)C[C@@H]1CCCB(O)O` (stereo partly drawn) [Example 37, (3R,4S)-3-amino-4-(3-boronopropyl)-1-(pyrrolidin-2-ylmethyl)pyrrolidine-3-carboxylic acid], the figures for the IC50 (in test [1]; at human arginase I (ARG I)) were 251 to 1000 nM and 0.1 to 250 nM, respectively.

As to `N[C@@]1(C(=O)O)CN(CCN2CCCC2)C[C@@H]1CCCB(O)O` [Example 38, (3R,4S)-3-amino-4-(3-boronopropyl)-1-(2-(pyrrolidin-1-yl)ethyl)pyrrolidine-3-carboxylic acid], the IC50 (in test [1]; on human arginase I (ARG I)) was 0.1 to 250 nM each time.

Consider `N[C@@]1(C(=O)O)CN(C[C@@H]2Cc3ccccc3CN2)C[C@@H]1CCCB(O)O` [Example 39, (3R,4S)-3-amino-4-(3-boronopropyl)-1-(((S)-1,2,3,4-tetrahydroisoquinolin-3-yl)methyl)pyrrolidine-3-carboxylic acid], for which the IC50 (in test [1]; at human arginase I (ARG I)) was 0.1 to 250 nM throughout.

Consider `N[C@@]1(C(=O)O)CN(CCNCc2ccccc2)C[C@@H]1CCCB(O)O` [Example 40, (3R,4S)-3-amino-1-(2-(benzylamino)ethyl)-4-(3-boronopropyl)pyrrolidine-3-carboxylic acid], for which the IC50 (in test [1]; on human arginase I (ARG I)) was 0.1 to 250 nM throughout.

Turning to `N[C@@]1(C(=O)O)CN(CCNCc2ccc(Cl)c(Cl)c2)C[C@@H]1CCCB(O)O` [Example 41, (3R,4S)-3-amino-4-(3-boronopropyl)-1-(2-(3,4-dichlorobenzylamino)ethyl)pyrrolidine-3-carboxylic acid], the IC50 (in test [1]; against human arginase I (ARG I)) was 0.1 to 250 nM in each case.

With `N[C@@]1(C(=O)O)CN(C(=O)Nc2ccc(Cl)cc2)C[C@@H]1CCCB(O)O` [Example 42, (3R,4S)-3-amino-4-(3-boronopropyl)-1-(4-chlorophenylcarbamoyl)pyrrolidine-3-carboxylic acid], the IC50 (in test [1]; on human arginase I (ARG I)) was 251 to 1000 nM in each case.

Take `N[C@@]1(C(=O)O)CN(C(=O)[C@@H]2CCCN2)C[C@@H]1CCCB(O)O` [Example 43, (3R,4S)-3-amino-4-(3-boronopropyl)-1-((S)-pyrrolidine-2-carbonyl)pyrrolidine-3-carboxylic acid]: the figures for the IC50 (in test [1]; at human arginase I (ARG I)) were 251 to 1000 nM and 0.1 to 250 nM, respectively.

As for `NC1CCCCC1N1C[C@H](CCCB(O)O)[C@](N)(C(=O)O)C1` (stereo partly drawn) [Example 44, (3R,4S)-3-amino-1-(2-aminocyclohexyl)-4-(3-boronopropyl)pyrrolidine-3-carboxylic acid], the IC50 (in test [1]; against human arginase I (ARG I)) was 0.1 to 250 nM throughout.

Regarding `N[C@@]1(C(=O)O)CN(C(=O)Cc2ccc(Cl)cc2)C[C@@H]1CCCB(O)O` [Example 45, (3R,4S)-3-amino-4-(3-boronopropyl)-1-(2-(4-chlorophenyl)acetyl)pyrrolidine-3-carboxylic acid], the IC50 (in test [1]; against human arginase I (ARG I)) was 251 to 1000 nM each time.

Take `COc1ccc(C(=O)N2C[C@H](CCCB(O)O)[C@](N)(C(=O)O)C2)cc1` [Example 47, (3R,4S)-3-amino-4-(3-boronopropyl)-1-(4-methoxybenzoyl)pyrrolidine-3-carboxylic acid]: the IC50 (in test [1]; at human arginase I (ARG I)) was 251 to 1000 nM throughout.

In the case of `N[C@@]1(C(=O)O)CN(CC2Cc3ccc(Cl)cc3CN2)C[C@@H]1CCCB(O)O` (stereo partly drawn) [Example 49, (3R,4S)-3-amino-4-(3-boronopropyl)-1-((7-chloro-1,2,3,4-tetrahydroisoquinolin-3-yl)methyl)pyrrolidine-3-carboxylic acid], the IC50 (in test [1]; against human arginase I (ARG I)) was 0.1 to 250 nM throughout.

Take `Nc1ccccc1S(=O)(=O)N1C[C@H](CCCB(O)O)[C@](N)(C(=O)O)C1` [Example 50, (3R,4S)-3-amino-1-(2-aminophenylsulfonyl)-4-(3-boronopropyl)pyrrolidine-3-carboxylic acid]: the IC50 in test [1] lay within 1000 to 2000 nM; on human arginase I (ARG I) it was 251 to 1000 nM.

On to `N[C@@]1(C(=O)O)CN(CC2Cc3cc(Cl)ccc3CN2)C[C@@H]1CCCB(O)O` (stereo partly drawn) [Example 51, (3R,4S)-3-amino-4-(3-boronopropyl)-1-((6-chloro-1,2,3,4-tetrahydroisoquinolin-3-yl)methyl)pyrrolidine-3-carboxylic acid], for which the IC50 (in test [1]; against human arginase I (ARG I)) was 0.1 to 250 nM each time.
